Results from ChEMBL document CHEMBL1139768, “The discovery of potent, selective, and orally bioavailable hNK1 antagonists derived from pyrrolidine” (Bioorg Med Chem Lett, 2007).
pIC50: −log10 of the molar value.

Experiments:
Gerbillinae [1] = assay: Inhibition of GR-73632-induced foot tapping in gerbils at 3 mg/kg, iv after 24 hrs; assay type: functional; settings: for inhibition in vivo at 3 mg/kg: Gerbillinae, iv, 24 h
Substance-P receptor = Substance-P receptor (Homo sapiens, UniProt P25103); assay: Displacement of [125I]-SP from human NK1 receptor expressed in CHO cells
Sequence of Substance-P receptor (P25103 whole entry): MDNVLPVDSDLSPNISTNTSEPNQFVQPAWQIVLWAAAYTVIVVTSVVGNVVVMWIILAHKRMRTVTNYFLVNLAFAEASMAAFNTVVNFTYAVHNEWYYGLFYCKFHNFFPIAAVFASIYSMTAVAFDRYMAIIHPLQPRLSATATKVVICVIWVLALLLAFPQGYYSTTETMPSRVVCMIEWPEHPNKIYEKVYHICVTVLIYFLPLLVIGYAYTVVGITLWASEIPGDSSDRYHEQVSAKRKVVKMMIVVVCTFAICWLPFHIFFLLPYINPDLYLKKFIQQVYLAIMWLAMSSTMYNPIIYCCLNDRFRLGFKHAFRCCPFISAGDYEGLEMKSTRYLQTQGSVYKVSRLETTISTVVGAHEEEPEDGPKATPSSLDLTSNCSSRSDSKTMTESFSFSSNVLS

Gerbillinae [2] = assay: Inhibition of GR-73632-induced foot tapping in iv dosed gerbils; assay type: functional; settings: for ED50: Gerbillinae, iv, read-out: ID50 (the source's name)
Gerbillinae [3] = assay: Inhibition of GR-73632-induced foot tapping in iv dosed gerbils after 24 hrs; assay type: functional; settings: for ED50: Gerbillinae, iv, 24 h, read-out: ID50 (the source's name)
Gerbillinae [4] = assay: Inhibition of GR-73632-induced foot tapping in gerbils at 6 mg/kg, iv after 24 hrs; assay type: functional
Gerbillinae [5] = assay: Inhibition of GR-73632-induced foot tapping in gerbils at 1 mg/kg, iv; assay type: functional
Gerbillinae [6] = assay: Inhibition of GR-73632-induced foot tapping in gerbils at 2 mg/kg, iv; assay type: functional

Question: What does the source list for `C[C@@H](O[C@@H]1CN(C2=CC(=O)C(C)(C)CC2)C[C@H]1c1ccccc1)c1cc(C(F)(F)F)cc(C(F)(F)F)c1`?
Answer: inhibition in vivo at 3 mg/kg (Gerbillinae [1]): 12%; pIC50 (Substance-P receptor): 9.74

Question: For `C[C@@H](O[C@@H]1CN(C2=CC(=O)N(C)C2)C[C@H]1c1ccc(F)cc1)c1cc(C(F)(F)F)cc(C(F)(F)F)c1`, which inhibition in vivo at 3 mg/kg (Gerbillinae [1]) is on record?
Answer: 8%

Question: And the pIC50 (Substance-P receptor)?
Answer: 9.92

Question: For `C[C@@H](O[C@@H]1CN(C(=O)[C@@H]2CCC(=O)N2C)C[C@H]1c1ccc(F)cc1)c1cc(C(F)(F)F)cc(C(F)(F)F)c1`, which ED50 (Gerbillinae [2]) is on record?
Answer: 0.6 mg/kg

Question: What about the ED50 (Gerbillinae [3]) of the same compound?
Answer: 1.2 mg/kg

Question: And the inhibition in vivo at 3 mg/kg (Gerbillinae [1])?
Answer: 100%

Question: What about the pIC50 (Substance-P receptor) of the same compound?
Answer: 9.92

Question: For `CCNC(=O)N1C[C@@H](O[C@H](C)c2cc(C(F)(F)F)cc(C(F)(F)F)c2)[C@H](c2ccc(F)cc2)C1`, which inhibition in vivo at 6 mg/kg (Gerbillinae [4]) is on record?
Answer: 93%

Question: What about the ED50 (Gerbillinae [3]) of the same compound?
Answer: 1 mg/kg

Question: And the inhibition in vivo at 1 mg/kg (Gerbillinae [5])?
Answer: 61%

Question: What about the pIC50 (Substance-P receptor) of the same compound?
Answer: 10.00

Question: What does the source list for `Cc1cnc(C(=O)N2C[C@@H](O[C@H](C)c3cc(C(F)(F)F)cc(C(F)(F)F)c3)[C@H](c3ccc(F)cc3)C2)cn1`?
Answer: inhibition in vivo at 3 mg/kg (Gerbillinae [1]): 45%; pIC50 (Substance-P receptor): 9.92

Question: What does the source list for `CNC(=O)N1C[C@@H](O[C@H](C)c2cc(C(F)(F)F)cc(C(F)(F)F)c2)[C@H](c2ccc(F)cc2)C1`?
Answer: inhibition in vivo at 6 mg/kg (Gerbillinae [4]): 77%; inhibition in vivo at 2 mg/kg (Gerbillinae [6]): 100%; ED50 (Gerbillinae [2]): 1 mg/kg; ED50 (Gerbillinae [3]): 3 mg/kg; pIC50 (Substance-P receptor): 9.96

Question: For `CCC(=O)N1C[C@@H](O[C@H](C)c2cc(C(F)(F)F)cc(C(F)(F)F)c2)[C@H](c2ccc(F)cc2)C1`, which inhibition in vivo at 6 mg/kg (Gerbillinae [4]) is on record?
Answer: 0%

Question: What about the pIC50 (Substance-P receptor) of the same compound?
Answer: 10.05

Question: With `CC(=O)N1C[C@@H](O[C@H](C)c2cc(C(F)(F)F)cc(C(F)(F)F)c2)[C@H](c2ccccc2)C1` as the compound, how does the inhibition in vivo at 6 mg/kg (Gerbillinae [4]) read?
Answer: 98%

Question: And the ED50 (Gerbillinae [2])?
Answer: 0.6 mg/kg

Question: What about the ED50 (Gerbillinae [3]) of the same compound?
Answer: 3.2 mg/kg

Question: What about the pIC50 (Substance-P receptor) of the same compound?
Answer: 10.05

Question: Which results are given for `CC(=O)N1C[C@@H](O[C@H](C)c2cc(C(F)(F)F)cc(C(F)(F)F)c2)[C@H](c2ccc(F)cc2)C1`?
Answer: inhibition in vivo at 6 mg/kg (Gerbillinae [4]): 26%; pIC50 (Substance-P receptor): 10.15

Question: Which results are given for `CC1CC(N2C[C@@H](O[C@H](C)c3cc(C(F)(F)F)cc(C(F)(F)F)c3)[C@H](c3ccc(F)cc3)C2)=CC1=O` (single isomer, unassigned; diastereomer A)?
Answer: Inhibition (Gerbillinae [1]; 3 mg/kg): 85%; pIC50 (Substance-P receptor): 9.80

Question: Which inhibition in vivo at 3 mg/kg (Gerbillinae [1]) does the source give for `C[C@@H](O[C@@H]1CN(C(=O)N2CCn3c(nnc3C(F)(F)F)C2)C[C@H]1c1ccc(F)cc1)c1cc(C(F)(F)F)cc(C(F)(F)F)c1` here?
Answer: 66%

Question: And the pIC50 (Substance-P receptor)?
Answer: 9.33

Question: With `C[C@@H](O[C@@H]1CN(C2=CC(=O)C(O)C2)C[C@H]1c1ccc(F)cc1)c1cc(C(F)(F)F)cc(C(F)(F)F)c1` (stereo in doubt) as the compound, how does the ID50 (Gerbillinae [2]) read?
Answer: 1.1 mg/kg

Question: And the ID50 (Gerbillinae [3])?
Answer: 0.5 mg/kg

Question: And the inhibition in vivo at 3 mg/kg (Gerbillinae [1])?
Answer: 95%

Question: What about the pIC50 (Substance-P receptor) of the same compound?
Answer: 9.52

Question: What does the source list for `CC(C)C(=O)N1C[C@@H](O[C@H](C)c2cc(C(F)(F)F)cc(C(F)(F)F)c2)[C@H](c2ccc(F)cc2)C1`?
Answer: inhibition in vivo at 6 mg/kg (Gerbillinae [4]): 43%; pIC50 (Substance-P receptor): 9.82

Question: Which results are given for `C[C@@H](O[C@@H]1CN(C(=O)NCc2cnn[nH]2)C[C@H]1c1ccc(F)cc1)c1cc(C(F)(F)F)cc(C(F)(F)F)c1`?
Answer: inhibition in vivo at 3 mg/kg (Gerbillinae [1]): 24%; pIC50 (Substance-P receptor): 9.24

Question: `C[C@@H](O[C@@H]1CN(C=O)C[C@H]1c1ccc(F)cc1)c1cc(C(F)(F)F)cc(C(F)(F)F)c1` was tested. Which pIC50 (Substance-P receptor) did it give?
Answer: 9.62

Question: What does the source list for `C[C@@H](O[C@@H]1CN(C(=O)N2CCOCC2)C[C@H]1c1ccccc1)c1cc(C(F)(F)F)cc(C(F)(F)F)c1`?
Answer: inhibition in vivo at 1 mg/kg (Gerbillinae [5]): 40%; pIC50 (Substance-P receptor): 9.80
